23 molecules from PubChem BioAssay AID256 (DTP/NCI, 2004) can be followed below.

For the assay, the system named is CD2F1 mice, L1210 leukemia ip, survival T/C. Nature of the assay: NCI In Vivo Anticancer Drug Screen. Data for tumor model L1210 Leukemia (intraperitoneal) in CD2F1 (CDF1) mice. Particulars: higher = longer survival. The method in brief:
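Vehicle-treated tumor-bearing mice served as controls (C) for compound-treated mice (T). Reported figure is T divided by C.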

The mark [1] stands for this setting: endpoint: mean survival time, dose: 100.0 mg/kg/injection, schedule: Q04DX003 (ip), vehicle: saline.
Setting [2] is: endpoint: mean survival time, dose: 200.0 mg/kg/injection, schedule: Q04DX003 (ip), vehicle: saline.
Setting [3] is: endpoint: mean survival time, dose: 400.0 mg/kg/injection, schedule: Q04DX003 (ip), vehicle: saline.
[4] abbreviates: endpoint: mean survival time, dose: 100.0 mg/kg/injection, schedule: Q01DX009 (ip), vehicle: saline with Tween-80.
The mark [5] stands for this setting: endpoint: mean survival time, dose: 200.0 mg/kg/injection, schedule: Q01DX009 (ip), vehicle: saline with Tween-80.
Where [6] appears, read: endpoint: mean survival time, dose: 400.0 mg/kg/injection, schedule: Q01DX009 (ip), vehicle: saline with Tween-80.
Where [7] appears, read: endpoint: mean survival time, dose: 100.0 mg/kg/injection, schedule: Q01DX001 (ip), vehicle: saline.
Setting [8] is: endpoint: mean survival time, dose: 200.0 mg/kg/injection, schedule: Q01DX001 (ip), vehicle: saline.
Setting [9] is: endpoint: mean survival time, dose: 100.0 mg/kg/injection, schedule: Q04DX003 (ip), vehicle: saline with Tween-80.
[10] abbreviates: endpoint: mean survival time, dose: 50.0 mg/kg/injection, schedule: Q04DX003 (ip), vehicle: saline with Tween-80.

Where “and” joins values, the source holds several entries; their conditions need not be identical. Identical values can stand only once. Toxic doses and inconclusive results are not listed.

Take `CC(C)O.CC(C)O.CC(C)O.[La]`: the T/C is, setting by setting: under setting [1], 97 % of control; under setting [2], 87 % of control; under setting [3], 89 % of control.
In the case of `NCCCOS(=O)(=O)O`, the T/C is, setting by setting: under setting [4], 96 % of control; under setting [1], 98 % of control; under setting [5], 97 % of control; under setting [2], 101 % of control; under setting [6], 100 % of control; under setting [3], 95 % of control.
`NC(=O)/C=C/C(N)=O`: the T/C under setting [4] is 98 % of control and the T/C under setting [5] is 98 % of control.
With `OCC(O)c1ccccc1` (stereo not drawn), the T/C is, setting by setting: (endpoint: mean survival time, dose: 100.0 mg/kg/injection, schedule: Q04DX002 (ip), vehicle: saline) 97 % of control; (endpoint: mean survival time, dose: 200.0 mg/kg/injection, schedule: Q04DX002 (ip), vehicle: saline) 101 % of control; (endpoint: mean survival time, dose: 400.0 mg/kg/injection, schedule: Q04DX002 (ip), vehicle: saline) 104 % of control.
As for `CS(=O)(=O)OCC(OS(C)(=O)=O)C(OS(C)(=O)=O)C(OS(C)(=O)=O)C(COS(C)(=O)=O)OS(C)(=O)=O` (stereo not drawn), the T/C reads like this: (endpoint: mean survival time, dose: 12.5 mg/kg/injection, schedule: Q01DX009 (ip), vehicle: Klucel (hydroxypropylcellulose) (HPC)) 101 % of control; (endpoint: mean survival time, dose: 25.0 mg/kg/injection, schedule: Q01DX009 (ip), vehicle: Klucel (hydroxypropylcellulose) (HPC)) 104 % of control; (endpoint: mean survival time, dose: 50.0 mg/kg/injection, schedule: Q01DX009 (ip), vehicle: Klucel (hydroxypropylcellulose) (HPC)) 101 % of control.
With `CN(C)c1ccc(N=C2CC(=Nc3ccc(N(C)C)cc3)c3ccccc3C2=O)cc1`, the T/C reads like this: under setting [1], 104 % of control; under setting [2], 96 % of control; under setting [3], 101 % of control.
On to `CNC(CCNCCc1ccccc1)CNCCc1ccccc1` (stereo not drawn), for which the T/C (endpoint: mean survival time, dose: 75.0 mg/kg/injection, schedule: Q01DX001 (ip), vehicle: saline) is 97 % of control and the T/C (endpoint: mean survival time, dose: 150.0 mg/kg/injection, schedule: Q01DX001 (ip), vehicle: saline) was 107 % of control.
With `CCOC(=O)C(F)(C(=O)OCC)[N+](=O)[O-]`, the T/C was 102 % of control (endpoint: mean survival time, dose: 50.0 mg/kg/injection, schedule: Q04DX003 (ip), vehicle: saline); 101 % of control under setting [7]; 100 % of control under setting [1]; 104 % of control under setting [8]; 88 % of control under setting [2].
For `Cc1ccccc1N=C(c1ccccc1)C1C(=O)c2ccccc2C1=O`, the T/C is 103 % of control (endpoint: median survival time, dose: 50.0 mg/kg/injection, schedule: Q01DX005 (ip), vehicle: DMSO); 100 % of control (endpoint: median survival time, dose: 100.0 mg/kg/injection, schedule: Q01DX005 (ip), vehicle: DMSO); 103 % of control (endpoint: median survival time, dose: 200.0 mg/kg/injection, schedule: Q01DX005 (ip), vehicle: DMSO); 101 % of control (endpoint: median survival time, dose: 400.0 mg/kg/injection, schedule: Q01DX005 (ip), vehicle: DMSO); 100 % of control (endpoint: median survival time, dose: 800.0 mg/kg/injection, schedule: Q01DX005 (ip), vehicle: DMSO).
As to `O=c1ccn2c(n1)OC1CC2OC1COC(c1ccccc1)(c1ccccc1)c1ccccc1` (stereo not drawn), the T/C was 102 % of control (endpoint: median survival time, dose: 12.5 mg/kg/injection, schedule: Q01DX005 (ip), vehicle: saline with Tween-80); 96 % of control (endpoint: median survival time, dose: 25.0 mg/kg/injection, schedule: Q01DX005 (ip), vehicle: saline with Tween-80); 95 % of control (endpoint: median survival time, dose: 50.0 mg/kg/injection, schedule: Q01DX005 (ip), vehicle: saline with Tween-80); 95 % of control (endpoint: median survival time, dose: 100.0 mg/kg/injection, schedule: Q01DX005 (ip), vehicle: saline with Tween-80); 98 % of control (endpoint: median survival time, dose: 200.0 mg/kg/injection, schedule: Q01DX005 (ip), vehicle: saline with Tween-80).
Regarding `O=C(O)c1c[nH]c2c(Cl)cccc2c1=O`, the T/C reads like this: under setting [7], 102 % of control; under setting [8], 100 % of control.
Take `NC1CCCCC1N.O=C1C=C/C(=C(/c2ccc(O)c(Br)c2)c2ccccc2S(=O)(=O)[O-])C=C1Br.O=C1C=C/C(=C(/c2ccc(O)c(Br)c2)c2ccccc2S(=O)(=O)[O-])C=C1Br.[Pt+4]`: the T/C was 175 % of control (endpoint: median survival time, dose: 3.12 mg/kg/injection, schedule: Q04DX003 (ip), vehicle: saline); 219 % of control (endpoint: median survival time, dose: 6.25 mg/kg/injection, schedule: Q04DX003 (ip), vehicle: saline); 239 % of control (endpoint: median survival time, dose: 12.5 mg/kg/injection, schedule: Q04DX003 (ip), vehicle: saline); 329 % of control (endpoint: median survival time, dose: 25.0 mg/kg/injection, schedule: Q04DX003 (ip), vehicle: saline).
With `O=C1C=C(c2ccccc2)OC(=O)C1C(=O)c1ccccc1` (stereo not drawn), the T/C reads like this: (endpoint: mean survival time, dose: 100.0 mg/kg/injection, schedule: Q01DX001 (ip), vehicle: saline with Tween-80) 98 % of control; (endpoint: mean survival time, dose: 200.0 mg/kg/injection, schedule: Q01DX001 (ip), vehicle: saline with Tween-80) 94 % of control.
In the case of `Cc1ccc(S(=O)(=O)OCC2OC(n3cnc4c(NC=O)ncnc43)C(OC=O)C2OC=O)cc1` (stereo not drawn), the T/C is 104 % of control (endpoint: mean survival time, dose: 25.0 mg/kg/injection, schedule: Q01DX009 (ip), vehicle: saline); 102 % of control (endpoint: mean survival time, dose: 50.0 mg/kg/injection, schedule: Q01DX009 (ip), vehicle: saline); 98 % of control (endpoint: mean survival time, dose: 100.0 mg/kg/injection, schedule: Q01DX009 (ip), vehicle: saline).
`Clc1ccc(CN2CN(Cc3ccc(Cl)cc3)CN(Cc3ccc(Cl)cc3)C2)cc1`: the T/C by setting is: under setting [4], 95 % of control; under setting [9], 100 % of control; under setting [5], 97 % of control; (endpoint: mean survival time, dose: 200.0 mg/kg/injection, schedule: Q04DX003 (ip), vehicle: saline with Tween-80) 97 % of control; under setting [6], 100 % of control; (endpoint: mean survival time, dose: 400.0 mg/kg/injection, schedule: Q04DX003 (ip), vehicle: saline with Tween-80) 97 % of control.
For `O=C(O)CCOc1cc(F)c(Cl)cc1Cl`, the T/C by setting is: (endpoint: mean survival time, dose: 100.0 mg/kg/injection, schedule: Q04DX002 (ip), vehicle: saline with Tween-80) 94 % of control; (endpoint: mean survival time, dose: 200.0 mg/kg/injection, schedule: Q04DX002 (ip), vehicle: saline with Tween-80) 86 % of control; (endpoint: mean survival time, dose: 400.0 mg/kg/injection, schedule: Q04DX002 (ip), vehicle: saline with Tween-80) 86 % of control.
In the case of `CCOC(=O)CCc1ccc2c(c1)OCO2`, the T/C is 103 % of control under setting [4], 103 % of control under setting [5] and 113 % of control under setting [6].
In the case of `CCOC(=O)c1cnn(CCO)c1N`, the T/C reads like this: (endpoint: mean survival time, dose: 50.0 mg/kg/injection, schedule: Q04DX003 (ip), vehicle: water) 100 % of control; (endpoint: mean survival time, dose: 100.0 mg/kg/injection, schedule: Q04DX003 (ip), vehicle: water) 97 % of control; (endpoint: mean survival time, dose: 200.0 mg/kg/injection, schedule: Q04DX003 (ip), vehicle: water) 101 % of control; (endpoint: mean survival time, dose: 400.0 mg/kg/injection, schedule: Q04DX003 (ip), vehicle: water) 103 % of control and 107 % of control; (endpoint: mean survival time, dose: 600.0 mg/kg/injection, schedule: Q04DX003 (ip), vehicle: water) 101 % of control; (endpoint: mean survival time, dose: 800.0 mg/kg/injection, schedule: Q04DX003 (ip), vehicle: water) 105 % of control.
Regarding `COc1ccc(C(=O)C2(O)Oc3ccccc3C2=O)cc1` (stereo not drawn), the T/C (endpoint: mean survival time, dose: 50.0 mg/kg/injection, schedule: Q01DX001 (ip), vehicle: saline) is 98 % of control; the T/C under setting [7] is 98 % of control; the T/C under setting [8] is 98 % of control; the T/C (endpoint: mean survival time, dose: 400.0 mg/kg/injection, schedule: Q01DX001 (ip), vehicle: saline) was 117 % of control.
For the molecule `Nc1ccc2ccccc2c1S(=O)(=O)O`, the T/C was 102 % of control under setting [4], 93 % of control under setting [5] and 90 % of control under setting [6].
Turning to `O=c1[nH]c2ncnc(N=Nc3ncnc4[nH]c(=O)[nH]c34)c2[nH]1`, the T/C runs as follows: (endpoint: mean survival time, dose: 12.5 mg/kg/injection, schedule: Q01DX005 (ip), vehicle: distilled water + Tween-80) 98 % of control; (endpoint: mean survival time, dose: 25.0 mg/kg/injection, schedule: Q01DX005 (ip), vehicle: distilled water + Tween-80) 89 % of control; (endpoint: mean survival time, dose: 50.0 mg/kg/injection, schedule: Q01DX005 (ip), vehicle: distilled water + Tween-80) 91 % of control; (endpoint: mean survival time, dose: 100.0 mg/kg/injection, schedule: Q01DX005 (ip), vehicle: distilled water + Tween-80) 94 % of control; (endpoint: mean survival time, dose: 200.0 mg/kg/injection, schedule: Q01DX005 (ip), vehicle: distilled water + Tween-80) 96 % of control.
With `C=C(C)CSC#N`, the T/C is 97 % of control (endpoint: mean survival time, dose: 25.0 mg/kg/injection, schedule: Q04DX003 (ip), vehicle: saline with Tween-80); 100 % of control under setting [10]; 100 % of control and 107 % of control under setting [9].
For `O=C(CBr)CC(=O)Nc1ccccc1`, the T/C runs as follows: under setting [10], 101 % of control; under setting [9], 88 % of control.
